Common to all, as to assay type: in vivo
Design in all cases: fold induction: dose or concentration left out as unconfirmed

The test system of assay [1] is Contig10030_at, Putative lipase homolog. The experiment in a line: GEP, barley DNA chip, probe set 1.13. As to conditions: Hordeum vulgare, topical, read-out: Expression value, 1.13 Contig10030_at; for fold induction: barley leaves 6 h after spray application, rates of Table 1 (S7 500), median induction factor vs control. On the procedure:
(§1) Barley plants (cv. Baronesse) were grown in compost-filled pots (diameter: 10 cm) for 10 days in a controlled-environment cabinet under defined light, humidity and temperature conditions (white light, 70% atmospheric humidity, 24° C.). At the time of spray application, the seedlings were approximately 15 cm in size. The test substances selected in this example were molecules which differ markedly in their structure and which have a well documented pronounced safener effect, and other molecules which are known from the literature to have an effect on plant stress and pathogen tolerance (Table 1). The substances were prepared as stock solutions in DMSO (dimethyl sulfoxide) at c=10 mg/ml). This was used for preparing dilutions in water supplemented with 0.2% Agrotin (comprises polyvinyl alcohol, silicones, polysaccharides and pH regulators, manufacturer: Bayer CropScience AG, Monheim, Germany), as wetter, to give the application rates shown in the table. The amount of liquid for the spray application was 800 μl per pot, corresponding to 800 l/ha. For each 800 μl of spray mixture, 16 μl of EC premix: diacetone alcohol=1:6 were additionally added as formulation auxiliaries. The substances listed in Table 1 were applied to the leaves by means of a pneumatic spray pistol. Each substance was sprayed as 2 dosages, and all experiments were carried out as replicates (2 pots per substance). Sprayings with blank formulation without active ingredient were carried out as controls. After 6 hours, the leaves were harvested, frozen in liquid nitrogen and stored at −80° C. until further use. The labeled RNA probes for the DNA chip hybridization were prepared as described in the protocols (Expression Analysis, Technical Manual) from Affymetrix (Affymetrix Inc., 3380 Central Expressway, Santa Clara, Calif., USA). First, total RNA was isolated from in each case 500 mg of the harvested leaves. In each case 10 μg of total RNA was used for the first-strand and second-strand cDNA synthesis. The cDNA was amplified with T7 polymerase and simultaneously labeled with biotin-UTP. In each case, 20 μg of this biotinylated cDNA was employed for the hybridization of the barley genome array (Gene Chip Barleyl, order No.: 511012) from Affymetrix. This DNA microarray comprises DNA sequences of 22 840 genes which are composed of a total of 400 000 EST sequences. Thereafter, the DNA microarrays were washed in the Affymetrix Fluidics Station, stained with streptavidin/phycoerythrin (Molecular Probes, P/N S-866) and scanned with the matching Agilent Laser Scanner (Agilent Gene Array Scanner). The fluorescent data obtained were analyzed with the software Microarray Suite 5 from Affymetrix. After the quality had been checked, all DNA chip analyses were stored in a database. To determine the relative expression values for genes (induction factors, repression factors), test and control chips were compared with each other, and the scoring function set by the Affymetrix software was used as the basis. The 2 biological replications of one experiment were compared in each case with 2 control chips (blank formulation), and the 4 expression values obtained for each gene were used for calculating the median. These medians are shown in the results tables as induction factors. Similarity comparisons of expression profiles from different experiments and cluster analyses were carried out using the software GeneMaths 1.5 from Applied Maths (Applied Maths, Keistraat 120, 9830 Sint-Martens-Latem, Belgium).
(§2) Gene groups from specific metabolic pathways and signal transduction chains were put together by key word search in the annotations, of the genes, which were also provided by Affymetrix, and by Blast analyses (homology comparisons) of the DNA target sequences, i.e. of the positive sequence (identified on the basis of a modified expression profile) identified on the DNA chip, using gene sequences from other organisms, preferably plant organisms, with characterized functions. […]

The subject of assay [2] is Contig15_a_at, GDSL-motif lipase/hydrolase-like protein. Briefly: GEP, barley DNA chip, probe set 1.9. As to conditions: Hordeum vulgare, topical, read-out: Expression value, 1.9 Contig15_a_at; for fold induction: barley leaves 6 h after spray application, rates of Table 1 (S7 500), median induction factor vs control. On the procedure:
as §1, §2

The subject of assay [3] is Contig88_x_at, Putative proteinase inhibitor. The experiment in a line: GEP, barley DNA chip, probe set 2.3. As to conditions: Hordeum vulgare, topical, read-out: Expression value, 2.3 Contig88_x_at; for fold induction: barley leaves 6 h after spray application, rates of Table 1 (S7 500), median induction factor vs control. On the procedure: as §1, §2
For assay [4], the system named is Contig2330_x_at, 12-oxophytodienoic acid reductase. Briefly: GEP, barley DNA chip, probe set 1.19. As to conditions: Hordeum vulgare, topical, read-out: Expression value, 1.19 Contig2330_x_at; for fold induction: barley leaves 6 h after spray application, rates of Table 1 (S7 500), median induction factor vs control. On the procedure:
as §1, §2

Assay [5] has as its system Contig34_s_at, Putative proteinase inhibitor. The experiment in a line: GEP, barley DNA chip, probe set 2.2. As to conditions: Hordeum vulgare, topical, read-out: Expression value, 2.2 Contig34_s_at; for fold induction: barley leaves 6 h after spray application, rates of Table 1 (S7 500), median induction factor vs control. On the procedure: as §1, §2
Assay [6] concerns Contig2631_at, Lipase-like Protein (jasmonic acid biosynthesis gene). Briefly: Gene expression profiling (GEP), barley DNA chip, probe set 1.1. The following applies: Hordeum vulgare; for fold induction: barley leaves 6 h after spray application, rates of Table 1 (S7 500), median induction factor vs control. On the procedure: as §1, §2
The test system of assay [7] is Contig5023_at, Class III chitinase. Briefly: GEP, barley DNA chip, probe set 5.3. As to conditions: Hordeum vulgare, topical, read-out: Expression value, 5.3 Contig5023_at; for fold induction: barley leaves 6 h after spray application, rates of Table 1 (S7 500), median induction factor vs control. The protocol: as §1, §2
For assay [8], the system named is HV_Ceb0020D05r2_s_at, Allene oxide cyclase. Briefly: GEP, barley DNA chip, probe set 1.6. The following applies: Hordeum vulgare, topical, read-out: Expression value, 1.6 HV_Ceb0020 D05r2_s_at; for fold induction: barley leaves 6 h after spray application, rates of Table 1 (S7 500), median induction factor vs control. On the procedure: as §1, §2
The subject of assay [9] is HD07M22r_s_at, Proteinase-Inhibitor (pir S71555, barley). Briefly: GEP, barley DNA chip, probe set 2.4. As to conditions: Hordeum vulgare, topical, read-out: Expression value, 2.4 HD07M22r_s_at; for fold induction: barley leaves 6 h after spray application, rates of Table 1 (S7 500), median induction factor vs control. On the procedure:
as §1, §2

Assay [10] has as its system Contig 4986_at, Allene oxide cyclase. Briefly: GEP, barley DNA chip, probe set 1.5. As to conditions: Hordeum vulgare, topical, read-out: Expression value, 1.5 Contig 4986_at; for fold induction: barley leaves 6 h after spray application, rates of Table 1 (S7 500), median induction factor vs control. The protocol: as §1, §2
In assay [11] the test system is Contig3096_s_at, Allene oxide synthase. The experiment in a line: GEP, barley DNA chip, probe set 1.16. As to conditions: Hordeum vulgare, topical, read-out: Expression value, 1.16 Contig3096_s_at; for fold induction: barley leaves 6 h after spray application, rates of Table 1 (S7 500), median induction factor vs control. The protocol: as §1, §2
The test system of assay [12] is Contig5146_at, Probable 12-oxophytodienoate reductase (EC 1.3.1.42). The experiment in a line: GEP, barley DNA chip, probe set 1.4. As to conditions: Hordeum vulgare, topical, read-out: Expression value, 1.4 Contig5146_at; for fold induction: barley leaves 6 h after spray application, rates of Table 1 (S7 500), median induction factor vs control. On the procedure:
as §1, §2

Assay [13] deals with Contig1737_at, Probable lipoxygenase. Briefly: GEP, barley DNA chip, probe set 1.15. As to conditions: Hordeum vulgare, topical, read-out: Expression value, 1.15 Contig1737_at; for fold induction: barley leaves 6 h after spray application, rates of Table 1 (S7 500), median induction factor vs control. The protocol: as §1, §2

SMILES strings stand for the structures.

Consider `CCOC(=O)C1=NOC(c2ccccc2)(c2ccccc2)C1` [S3, Isoxadifen-ethyl], for which the fold induction at 150 g/ha stood at 2.25 in assay [1] (6 h); 2.97 in assay [2] (6 h); 4.53 in assay [3] (6 h); 1 in assay [4] (6 h); 1 in assay [5] (6 h); 97.7 in assay [6] (6 h, read-out: Expression value, 1.1 Contig2631_at). Moreover, the fold induction at 150 g/ha in assay [7] (6 h) came out at 1; in [8] (6 h), 3.68; in assay [9] (6 h), 2.71; in assay [10] (6 h), 3.76; in [11] (6 h), 1; in [12] (6 h), 4.5. Further, the fold induction at 150 g/ha in assay [13] (6 h) was 1.

For `CCCCCC(C)OC(=O)COc1ccc(Cl)c2cccnc12` (stereo not shown) [S4, Cloquintocet-mexyl], the fold induction in assay [1] stood at 1; in assay [2] it was 1; in [3], 1; in assay [4], 2.83; in assay [5], 1; in assay [6], 1. In addition, the fold induction in assay [7] is 1; in assay [8], 1; in assay [9], 1; in assay [10] it was 1; in assay [11] it was 1; in assay [12] it was 4.72. Moreover, the fold induction in assay [13] is 1.

`CSC(=O)c1cccc2nnsc12` [S8, Acibenzolar-S-methyl]: the fold induction in assay [1] came to 1; in [2] it was 1; in [3], 22.9; in assay [4] it was 1; in assay [5], 3.68; in assay [6], 1. Besides, the fold induction in assay [7] came to 1; in assay [8], 1; in assay [9], 1; in assay [10] it was 1; in assay [11], 2.68; in assay [12] it was 1. The fold induction in assay [13] worked out at 1.

Turning to `O=C(O)C1=NN(c2ccc(Cl)cc2Cl)C(c2ccc(F)cc2)C1` (stereo not shown) [S2], the fold induction was determined as 1 in [1]; 1 in [2]; 1 in assay [3]; 2.39 in [4]; 1 in [5]; 1 in [6]. Also, the fold induction in assay [7] came to 3.18; in assay [8], 1; in assay [9] it was 1; in assay [10] it was 1; in assay [11], 1; in assay [12], 4.47. For the same compound, in assay [13], the fold induction stood at 1.

These data come from patent US20070265164A1, “Active Substances for Increasing Pathogenic Defense in Plants and Methods for the Detection Thereof” (Bayer Cropscience GmbH, priority 2004, published 2007).
